The target of assay [1] is T1, Receptor-type tyrosine-protein phosphatase C (Homo sapiens, UniProt P08575).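 Further: inhibition of CD45 enzyme activity measured using DiFMUP as substrate; in other assays of this panel Not Active means under 50% inhibition at 10 µM.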
T1 sequence (P08575 whole entry): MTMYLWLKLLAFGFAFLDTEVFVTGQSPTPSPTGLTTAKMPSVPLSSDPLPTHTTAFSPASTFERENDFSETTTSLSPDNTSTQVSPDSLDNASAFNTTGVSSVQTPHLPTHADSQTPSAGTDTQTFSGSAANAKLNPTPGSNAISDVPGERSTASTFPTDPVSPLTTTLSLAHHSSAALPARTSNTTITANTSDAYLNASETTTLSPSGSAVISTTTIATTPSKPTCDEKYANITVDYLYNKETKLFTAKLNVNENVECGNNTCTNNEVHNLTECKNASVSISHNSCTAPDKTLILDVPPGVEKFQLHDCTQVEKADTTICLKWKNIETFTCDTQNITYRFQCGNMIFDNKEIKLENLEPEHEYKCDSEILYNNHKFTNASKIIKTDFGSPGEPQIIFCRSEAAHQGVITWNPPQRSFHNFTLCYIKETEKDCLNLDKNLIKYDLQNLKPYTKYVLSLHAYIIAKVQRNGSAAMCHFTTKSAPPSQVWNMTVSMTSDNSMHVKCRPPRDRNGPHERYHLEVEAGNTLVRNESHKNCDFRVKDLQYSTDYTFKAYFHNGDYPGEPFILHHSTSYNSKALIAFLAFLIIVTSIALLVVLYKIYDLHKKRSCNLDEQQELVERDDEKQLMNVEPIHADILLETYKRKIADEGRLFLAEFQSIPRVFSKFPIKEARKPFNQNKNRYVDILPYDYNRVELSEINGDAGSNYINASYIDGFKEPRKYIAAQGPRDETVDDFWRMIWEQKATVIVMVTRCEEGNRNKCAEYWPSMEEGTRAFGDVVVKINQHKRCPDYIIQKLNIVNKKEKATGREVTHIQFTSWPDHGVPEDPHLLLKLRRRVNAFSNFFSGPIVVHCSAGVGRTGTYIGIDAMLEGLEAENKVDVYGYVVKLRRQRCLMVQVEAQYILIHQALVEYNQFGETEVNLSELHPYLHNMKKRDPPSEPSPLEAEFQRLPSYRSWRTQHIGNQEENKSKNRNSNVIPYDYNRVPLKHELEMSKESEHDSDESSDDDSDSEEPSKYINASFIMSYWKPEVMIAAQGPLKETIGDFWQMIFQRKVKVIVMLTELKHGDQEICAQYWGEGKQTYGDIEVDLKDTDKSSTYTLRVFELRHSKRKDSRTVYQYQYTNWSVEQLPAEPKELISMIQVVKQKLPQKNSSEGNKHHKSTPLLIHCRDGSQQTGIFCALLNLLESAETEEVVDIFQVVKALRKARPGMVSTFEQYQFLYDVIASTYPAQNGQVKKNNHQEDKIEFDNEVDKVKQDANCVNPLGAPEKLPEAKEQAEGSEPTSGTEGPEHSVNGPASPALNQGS
The arrangement: species or system Escherichia coli.

A further assay has as its target T2, Endothelin-1 receptor (Homo sapiens, UniProt P25101). Further: in other assays of this panel Not Active means under 50% inhibition at 10 µM.
T2 sequence (P25101 whole entry): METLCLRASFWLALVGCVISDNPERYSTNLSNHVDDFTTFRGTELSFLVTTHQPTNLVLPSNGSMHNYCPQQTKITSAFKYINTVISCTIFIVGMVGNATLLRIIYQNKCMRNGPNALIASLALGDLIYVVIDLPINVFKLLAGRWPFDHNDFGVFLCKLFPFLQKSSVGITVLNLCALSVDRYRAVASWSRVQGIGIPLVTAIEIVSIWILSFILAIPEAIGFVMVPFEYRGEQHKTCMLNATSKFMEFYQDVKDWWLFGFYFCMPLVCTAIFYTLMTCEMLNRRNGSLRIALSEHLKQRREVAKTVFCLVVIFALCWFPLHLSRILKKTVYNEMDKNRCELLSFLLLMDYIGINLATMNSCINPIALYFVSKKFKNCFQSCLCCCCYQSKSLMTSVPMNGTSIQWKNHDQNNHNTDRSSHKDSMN
The class given is cell membranes, Membrane. The conditions noted are these: cho-k1.

The target of the next assay is T3, Adenosine receptor A1 (Homo sapiens, UniProt P30542).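 Further: radioligand binding assay at the adenosine A1 receptor, with DPCPX serving as the labelled ligand; in other assays of this panel Not Active means under 50% inhibition at 10 µM.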
T3 sequence (P30542 whole entry): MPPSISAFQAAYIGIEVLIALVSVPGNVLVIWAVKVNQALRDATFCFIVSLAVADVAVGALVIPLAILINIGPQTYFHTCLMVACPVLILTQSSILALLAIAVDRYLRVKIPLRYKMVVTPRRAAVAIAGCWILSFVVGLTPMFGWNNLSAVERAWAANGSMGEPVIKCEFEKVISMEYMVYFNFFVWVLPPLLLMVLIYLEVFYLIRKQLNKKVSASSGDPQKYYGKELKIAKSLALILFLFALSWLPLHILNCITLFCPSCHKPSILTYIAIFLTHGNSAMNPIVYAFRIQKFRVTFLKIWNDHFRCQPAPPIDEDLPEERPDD
The assay is classed as cell membranes, CHO, Membrane.

For a further assay, the target named is Substance-P receptor (Homo sapiens, UniProt P25103). The class given is cell membranes, CHO, Membrane. Further: in other assays of this panel Not Active means under 50% inhibition at 10 µM.
For assay [2], the target named is Delta-type opioid receptor (Homo sapiens, UniProt P41143). The assay is classed as cell membranes, HEK293, Membrane. Further: in other assays of this panel Not Active means under 50% inhibition at 10 µM.
The target of assay [3] is Sigma non-opioid intracellular receptor 1 (Homo sapiens, UniProt Q99720). Description: DRUGMATRIX: Sigma1 radioligand binding (ligand: [3H] Haloperidol). The conditions noted are these: Not Active = under 50% inhibition at 10 µM; for Ki: read-out: Ki. The assay is classed as cell membranes, Jurkat, Membrane.
Chain of Sigma non-opioid intracellular receptor 1 (Q99720 whole entry): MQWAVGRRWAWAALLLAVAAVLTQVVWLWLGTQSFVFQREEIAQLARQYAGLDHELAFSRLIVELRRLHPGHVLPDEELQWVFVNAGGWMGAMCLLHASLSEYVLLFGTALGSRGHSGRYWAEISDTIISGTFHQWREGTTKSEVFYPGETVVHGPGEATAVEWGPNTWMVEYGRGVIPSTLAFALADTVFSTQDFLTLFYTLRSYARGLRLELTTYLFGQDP

Chain of Substance-P receptor (P25103 whole entry): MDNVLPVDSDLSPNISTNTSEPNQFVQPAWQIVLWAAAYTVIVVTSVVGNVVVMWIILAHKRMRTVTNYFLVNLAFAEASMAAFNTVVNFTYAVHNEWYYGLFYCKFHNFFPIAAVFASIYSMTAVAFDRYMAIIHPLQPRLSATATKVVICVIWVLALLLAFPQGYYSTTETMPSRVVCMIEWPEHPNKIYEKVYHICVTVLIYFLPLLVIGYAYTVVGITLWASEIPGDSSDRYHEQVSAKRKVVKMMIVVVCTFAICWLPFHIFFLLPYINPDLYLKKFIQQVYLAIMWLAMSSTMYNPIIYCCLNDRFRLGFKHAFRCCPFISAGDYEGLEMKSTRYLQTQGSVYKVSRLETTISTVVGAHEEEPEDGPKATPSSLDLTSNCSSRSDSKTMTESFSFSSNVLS
Chain of Delta-type opioid receptor (P41143 whole entry): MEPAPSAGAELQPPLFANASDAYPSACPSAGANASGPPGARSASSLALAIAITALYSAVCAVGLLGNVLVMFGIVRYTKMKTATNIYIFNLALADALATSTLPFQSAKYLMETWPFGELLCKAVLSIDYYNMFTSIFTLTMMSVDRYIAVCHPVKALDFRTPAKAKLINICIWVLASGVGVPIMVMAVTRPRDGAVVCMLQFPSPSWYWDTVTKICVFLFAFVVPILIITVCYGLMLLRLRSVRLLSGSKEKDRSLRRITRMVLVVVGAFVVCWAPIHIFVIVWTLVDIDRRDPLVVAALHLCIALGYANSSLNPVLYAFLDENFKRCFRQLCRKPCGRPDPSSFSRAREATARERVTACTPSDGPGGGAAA

What is called IC50 is the concentration needed to halve the response being measured. On to `CCCCC(=O)N(Cc1ccc(-c2ccccc2-c2nnn[nH]2)cc1)[C@H](C(=O)O)C(C)C`, for which the IC50 result (in assay [1]; at Endothelin-1 receptor; on Adenosine receptor A1 (cho); against Substance-P receptor (cho); in assay [2] (hek293); in assay [3] (jurkat)) was “Not Active” each time.

In the case of `O=C(O)COc1ccc(C(=O)c2cccs2)c(Cl)c1Cl`, the IC50 result (in assay [1]; against Endothelin-1 receptor; at Adenosine receptor A1 (cho); against Substance-P receptor (cho); in assay [2] (hek293); in assay [3] (jurkat)) was “Not Active” throughout.

Turning to `CN1[C@@H]2CC[C@H]1C[C@@H](OC(c1ccccc1)c1ccccc1)C2` [BENZTROPINE], the IC50 result (in assay [1]; against Endothelin-1 receptor; against Adenosine receptor A1 (cho); at Substance-P receptor (cho); in assay [2] (hek293)) was “Not Active” in each case.

For `C[C@@](Cc1ccc(O)c(O)c1)(NN)C(=O)O.O` [CARBIDOPA], the IC50 result (in assay [1]; at Endothelin-1 receptor; against Adenosine receptor A1 (cho); against Substance-P receptor (cho); in assay [2] (hek293); in assay [3] (jurkat)) was “Not Active” throughout.

On to `CN1CCN(C2=Nc3cc(Cl)ccc3Nc3ccccc32)CC1` [CLOZAPINE], for which the IC50 entry (in assay [1]; against Endothelin-1 receptor; on Adenosine receptor A1 (cho); on Substance-P receptor (cho); in assay [2] (hek293); in assay [3] (jurkat)) was “Not Active” in each case.

Broadly, the Ki is a dissociation constant, usually derived from enzyme kinetics or from competition with a known ligand. As to `CC(C)NC[C@@H](O)COc1cccc2ccccc12` [DEXPROPRANOLOL], the IC50 result was “Not Active” in assay [1]; “Not Active” against Endothelin-1 receptor; “Not Active” on Adenosine receptor A1 (cho); “Not Active” against Substance-P receptor (cho); “Not Active” in assay [2] (hek293); 3.97 µM in assay [3] (read-out: IC50). In assay [3], the inhibitory constant (Ki) turned out to be 1.67 µM.

As for `CC(C)NC[C@H](O)COc1cccc2ccccc12` [LEVOPROPRANOLOL], the IC50 entry in assay [1] is “Not Active”; at Endothelin-1 receptor it was “Not Active”; at Adenosine receptor A1 (cho) it was “Not Active”; on Substance-P receptor (cho), “Not Active”; in assay [2] (hek293), “Not Active”; in assay [3] (read-out: IC50) it was 6.67 µM. Besides, the Ki in assay [3] is 2.8 µM.

For `O=C(O)CCCCC1CCSS1` (stereo not drawn) [LIPOIC ACID, ALPHA], the IC50 entry (in assay [1]; at Endothelin-1 receptor; on Adenosine receptor A1 (cho); against Substance-P receptor (cho); in assay [2] (hek293); in assay [3] (jurkat)) was “Not Active” in each case.

On to `CN(C)C(=O)C(CCN1CCC(O)(c2ccc(Cl)cc2)CC1)(c1ccccc1)c1ccccc1` [LOPERAMIDE], for which the IC50 result was “Not Active” in assay [1]; “Not Active” at Endothelin-1 receptor; “Not Active” at Adenosine receptor A1 (cho); “Not Active” on Substance-P receptor (cho); 0.628 µM in assay [3] (read-out: IC50). In addition, the Ki in assay [3] was found to be 0.264 µM.

As to `Clc1ccc(COC(Cn2ccnc2)c2ccc(Cl)cc2Cl)c(Cl)c1` (stereo not drawn) [MICONAZOLE], the 50% inhibitory concentration (IC50) result is “Not Active” in assay [1]; “Not Active” against Endothelin-1 receptor; 6.81 µM on Substance-P receptor (read-out: IC50); 3.39 µM in assay [2] (read-out: IC50); “Not Active” in assay [3] (jurkat). Also, the figures for the Ki (on Substance-P receptor (read-out: Ki); in assay [2] (read-out: Ki)) were 3.72 µM and 1.19 µM, respectively.

As to `Oc1ccc2c3c1O[C@H]1[C@@H](O)CC[C@@]4(O)[C@@H](C2)N(CC2CCC2)CC[C@]314` [NALBUPHINE], the IC50 entry (in assay [1]; at Endothelin-1 receptor; against Adenosine receptor A1 (cho); on Substance-P receptor (cho); in assay [3] (jurkat)) was “Not Active” throughout.

With `C[C@]12C=CC(=O)C=C1CC[C@@H]1[C@@H]2C(=O)C[C@@]2(C)[C@H]1CC[C@]2(O)C(=O)CO` [PREDNISONE], the IC50 entry (in assay [1]; at Endothelin-1 receptor; against Adenosine receptor A1 (cho); at Substance-P receptor (cho); in assay [2] (hek293); in assay [3] (jurkat)) was “Not Active” throughout.

As to `OCCOCCN1CCN(C2=Nc3ccccc3Sc3ccccc32)CC1` [QUETIAPINE], the IC50 result in assay [1] was “Not Active”; against Endothelin-1 receptor, “Not Active”; against Adenosine receptor A1 (cho) it was “Not Active”; at Substance-P receptor (cho) it was “Not Active”; in assay [2] (hek293), “Not Active”; in assay [3] (read-out: IC50) it was 2.29 µM. In addition, in assay [3], the Ki is 0.964 µM.

For the compound `COC(=O)[C@H]1[C@H]2C[C@@H]3c4[nH]c5cc(OC)ccc5c4CCN3C[C@H]2C[C@@H](OC(=O)c2cc(OC)c(OC)c(OC)c2)[C@@H]1OC` [RESERPINE], the IC50 entry (in assay [1]; against Endothelin-1 receptor; against Adenosine receptor A1 (cho); against Substance-P receptor (cho); in assay [2] (hek293); in assay [3] (jurkat)) was “Not Active” in each case.

`O=C(O)c1ccccc1O` [SALICYLIC ACID]: the IC50 entry (in assay [1]; against Endothelin-1 receptor; against Adenosine receptor A1 (cho); at Substance-P receptor (cho); in assay [2] (hek293); in assay [3] (jurkat)) was “Not Active” each time.

`C[S+]([O-])c1ccc(-c2nc(-c3ccncc3)c(-c3ccc(F)cc3)[nH]2)cc1` (stereo not drawn) [SB-203580]: the IC50 result in assay [1] is “Not Active”; on Endothelin-1 receptor it was “Not Active”; on Adenosine receptor A1 (read-out: IC50), 2.95 µM; against Substance-P receptor (cho) it was “Not Active”; in assay [2] (hek293) it was “Not Active”; in assay [3] (jurkat), “Not Active”. For the same compound, on Adenosine receptor A1 (read-out: Ki), the Ki amounted to 1.72 µM.

With `CC1CCC(NC(=O)N(CCCl)N=O)CC1` (stereo not drawn) [SEMUSTINE], the concentration for half-maximal inhibition (IC50) entry (in assay [1]; on Endothelin-1 receptor; against Adenosine receptor A1 (cho); at Substance-P receptor (cho); in assay [2] (hek293); in assay [3] (jurkat)) was “Not Active” in each case.

Take `O=C1C[C@@H]2OCC=C3CN4CC[C@]56c7ccccc7N1[C@H]5[C@H]2[C@H]3C[C@H]46` [STRYCHNINE]: the IC50 result (in assay [1]; on Endothelin-1 receptor; on Adenosine receptor A1 (cho); at Substance-P receptor (cho); in assay [2] (hek293); in assay [3] (jurkat)) was “Not Active” each time.

Take `C[N+](C)(C)CCOC(=O)CCC(=O)OCC[N+](C)(C)C.[Cl-].[Cl-]` [SUCCINYLCHOLINE CHLORIDE]: the half-inhibitory concentration (IC50) result (in assay [1]; at Endothelin-1 receptor; against Adenosine receptor A1 (cho); on Substance-P receptor (cho); in assay [2] (hek293); in assay [3] (jurkat)) was “Not Active” each time.

Take `Nc1ccc(S(=O)(=O)NC(=O)c2ccccc2)cc1` [SULFABENZAMIDE]: the IC50 entry (in assay [1]; against Endothelin-1 receptor; at Adenosine receptor A1 (cho); against Substance-P receptor (cho); in assay [2] (hek293); in assay [3] (jurkat)) was “Not Active” throughout.

The values are drawn from ChEMBL document CHEMBL1909046, “DrugMatrix in vitro pharmacology data”.
